Some test systems named below: KM-20L2; LXFL 529; M19-MEL; BT-549; DMS-114; HOP-18; Hs-578T; RXF 631.
Test in all cases: DTP human tumour cell line panel, 48 h

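A five-concentration, 48-hour dose response in 96-well plates underlies each endpoint, interpolated linearly between surrounding concentrations. GI50: concentration for 50% inhibition of growth.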 The source made the active and inactive calls. No stated cut-off is given here; in the data, active = GI50 up to about 1.1 µM and inactive = higher.

The term GI50 denotes the concentration giving 50% growth inhibition. Turning to `COc1cc2c(cc1OC)C(C1(O)CCCCC1)NCC2` (centres undefined), the GI50 in the test with KM-20L2, with LXFL 529 and in the test with M19-MEL was > 100 µM (inactive) in each case.
In the case of `CC(C)(C)OC(=O)NCC(=O)NC1c2ccsc2/C(=N/O)[C@H]1O` (some centres undefined), in the test with BT-549, the GI50 is > 100 µM (inactive).
`COCCOCOc1ccc(OCc2ccccc2)cc1`: the GI50 with DMS-114 was 40.9 µM (inactive); in the test with HOP-18 it was > 100 µM (inactive); with KM-20L2, > 100 µM (inactive); in the test with M19-MEL, > 63.4 µM (inactive).
As for `O=C1c2ccccc2OCC12OC21C=CC(Cl)=CC1` (centres undefined), the GI50 in the test with BT-549 was 37.9 µM (inactive).
`CSc1nc(N)c2c(-c3ccccc3)c3c(nc2n1)CCCC3`: the GI50 in the test with BT-549 is > 100 µM (inactive); in the test on Hs-578T, 21.5 µM (inactive).
Turning to `COc1cc2c(cc1Oc1ccc(OC)c3c1CC1c4c(cc(OC)c(OC)c4-3)CCN1C)CC1c3c(cc(OC)c(OC)c3-2)CCN1C` (centres undefined), the GI50 with HOP-18 is 14 µM (inactive); in the test on KM-20L2, 0.957 µM (active); in the test with M19-MEL, 1.74 µM (inactive).
As to `CC(=O)ON1C(=O)c2cccc3cccc(c23)C1=O`, the figures for the GI50 in the test with BT-549 and in the test on Hs-578T were 20.9 µM (inactive) and 23.6 µM (inactive), respectively.
Consider `CN(C)c1nc(N(C)C)nc(N(C)CN(C)c2ccccc2)n1`, for which the GI50 in the test on DMS-114 is 63.5 µM (inactive); in the test on HOP-18, > 100 µM (inactive); in the test on LXFL 529, > 100 µM (inactive); with M19-MEL, > 100 µM (inactive).
`Cc1cc(NS(=O)(=O)c2ccc(NC(=O)c3cccc4c(Nc5ccc(S(N)(=O)=O)cc5)c5ccccc5nc34)cc2)no1`: the GI50 with DMS-114, in the test with LXFL 529, in the test with M19-MEL and in the test with RXF 631 was > 100 µM (inactive) throughout.
For `Cc1ccccc1-c1nc2c(C(=O)NCCN(C)C)cccc2[nH]1`, the GI50 in the test with DMS-114 is 47.5 µM (inactive); in the test with HOP-18 it was 8.02 µM (inactive); with KM-20L2 it was 25.6 µM (inactive).
`O=C1OC(c2ccc(O)c(F)c2)(c2ccc(O)c(F)c2)c2cccc3cccc1c23`: the GI50 with Hs-578T is 2.03 µM (inactive).
On to `NC(=O)Oc1ccccc1` [CARBAMIC ACID PHENYL ESTER], for which the GI50 in the test on Hs-578T is > 100 µM (inactive).

Values taken from ChEMBL document CHEMBL1201862, “PubChem BioAssay data set” (2004).
